Assay results taken from ChEMBL document CHEMBL2074199, “The MRP4/ABCC4 gene encodes a novel apical organic anion transporter in human kidney proximal tubules: putative efflux pump for urinary cAMP and cGMP” (J Am Soc Nephrol, 2002).
Blank lines part the entries; values can stand above or below the molecule they belong to.

Columns and labels:
Format in all cases: functional, cell membranes, Membrane vesicle
[1] = biological target: T1, MRP4 (ABCC4) (Homo sapiens, UniProt O15439); test: TP_TRANSPORTER: inhibition of MTX uptake (MTX: 0.1 uM, E217betaG: 100 uM) in membrane vesicles from MRP4-expressing Sf9 cells; design: scale not given: the % may be the effect or the level left; settings: probe methotrexate 0.1 uM, read-out: Activity
T1 sequence (O15439 whole entry): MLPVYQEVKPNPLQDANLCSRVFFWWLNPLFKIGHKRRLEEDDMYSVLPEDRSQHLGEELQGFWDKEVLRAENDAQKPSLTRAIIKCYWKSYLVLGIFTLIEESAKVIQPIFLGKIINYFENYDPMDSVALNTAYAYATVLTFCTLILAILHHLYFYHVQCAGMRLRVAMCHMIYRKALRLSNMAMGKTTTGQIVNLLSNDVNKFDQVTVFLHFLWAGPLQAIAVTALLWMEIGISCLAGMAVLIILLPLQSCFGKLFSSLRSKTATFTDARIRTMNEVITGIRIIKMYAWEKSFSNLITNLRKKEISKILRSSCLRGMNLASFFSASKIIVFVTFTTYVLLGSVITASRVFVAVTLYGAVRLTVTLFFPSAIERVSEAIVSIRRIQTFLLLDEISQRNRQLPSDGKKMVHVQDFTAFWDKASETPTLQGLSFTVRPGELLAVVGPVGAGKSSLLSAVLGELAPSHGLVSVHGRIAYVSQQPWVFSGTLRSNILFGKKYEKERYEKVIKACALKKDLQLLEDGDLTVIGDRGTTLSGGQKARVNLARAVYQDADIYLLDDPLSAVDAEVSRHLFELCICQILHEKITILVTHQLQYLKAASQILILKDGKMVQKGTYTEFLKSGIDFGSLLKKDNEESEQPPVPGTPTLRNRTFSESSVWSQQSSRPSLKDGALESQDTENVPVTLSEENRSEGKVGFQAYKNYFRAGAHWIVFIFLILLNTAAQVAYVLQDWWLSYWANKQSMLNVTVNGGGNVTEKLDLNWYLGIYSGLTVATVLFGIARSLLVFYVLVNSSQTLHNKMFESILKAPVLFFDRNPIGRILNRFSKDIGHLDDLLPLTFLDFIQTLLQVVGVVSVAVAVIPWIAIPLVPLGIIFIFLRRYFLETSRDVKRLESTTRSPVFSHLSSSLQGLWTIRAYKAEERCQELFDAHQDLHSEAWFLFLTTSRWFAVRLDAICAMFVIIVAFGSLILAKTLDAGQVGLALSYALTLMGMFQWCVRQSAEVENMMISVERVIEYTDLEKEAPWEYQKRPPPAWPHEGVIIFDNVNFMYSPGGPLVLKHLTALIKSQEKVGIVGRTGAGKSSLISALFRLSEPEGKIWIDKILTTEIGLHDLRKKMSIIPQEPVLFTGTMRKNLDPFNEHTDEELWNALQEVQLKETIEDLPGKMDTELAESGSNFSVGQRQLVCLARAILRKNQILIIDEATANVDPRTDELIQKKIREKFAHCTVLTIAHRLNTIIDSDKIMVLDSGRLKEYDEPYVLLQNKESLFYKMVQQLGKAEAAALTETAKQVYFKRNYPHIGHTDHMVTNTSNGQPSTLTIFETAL

[2] = biological target: T1, MRP4 (ABCC4); test: TP_TRANSPORTER: inhibition of Methotrexate uptake (MTX: 0.1 uM, alpha-naphthyl beta-D-glucuronide: 1000 uM) in membrane vesicles from MRP4-expressing Sf9 cells; design: scale not given: the % may be the effect or the level left; settings: probe methotrexate 0.1 uM, read-out: Activity
[3] = biological target: T2, ATP-binding cassette sub-family C member 4 (Homo sapiens, UniProt O15439); test: TP_TRANSPORTER: inhibition of cGMP uptake ([…]: 1 uM, Dipyridamole: 1 uM) in membrane vesicles from MRP4-expressing Sf9 cells; design: scale not given: the % may be the effect or the level left; settings: sf9, 1 µM
T2 sequence (O15439 whole entry): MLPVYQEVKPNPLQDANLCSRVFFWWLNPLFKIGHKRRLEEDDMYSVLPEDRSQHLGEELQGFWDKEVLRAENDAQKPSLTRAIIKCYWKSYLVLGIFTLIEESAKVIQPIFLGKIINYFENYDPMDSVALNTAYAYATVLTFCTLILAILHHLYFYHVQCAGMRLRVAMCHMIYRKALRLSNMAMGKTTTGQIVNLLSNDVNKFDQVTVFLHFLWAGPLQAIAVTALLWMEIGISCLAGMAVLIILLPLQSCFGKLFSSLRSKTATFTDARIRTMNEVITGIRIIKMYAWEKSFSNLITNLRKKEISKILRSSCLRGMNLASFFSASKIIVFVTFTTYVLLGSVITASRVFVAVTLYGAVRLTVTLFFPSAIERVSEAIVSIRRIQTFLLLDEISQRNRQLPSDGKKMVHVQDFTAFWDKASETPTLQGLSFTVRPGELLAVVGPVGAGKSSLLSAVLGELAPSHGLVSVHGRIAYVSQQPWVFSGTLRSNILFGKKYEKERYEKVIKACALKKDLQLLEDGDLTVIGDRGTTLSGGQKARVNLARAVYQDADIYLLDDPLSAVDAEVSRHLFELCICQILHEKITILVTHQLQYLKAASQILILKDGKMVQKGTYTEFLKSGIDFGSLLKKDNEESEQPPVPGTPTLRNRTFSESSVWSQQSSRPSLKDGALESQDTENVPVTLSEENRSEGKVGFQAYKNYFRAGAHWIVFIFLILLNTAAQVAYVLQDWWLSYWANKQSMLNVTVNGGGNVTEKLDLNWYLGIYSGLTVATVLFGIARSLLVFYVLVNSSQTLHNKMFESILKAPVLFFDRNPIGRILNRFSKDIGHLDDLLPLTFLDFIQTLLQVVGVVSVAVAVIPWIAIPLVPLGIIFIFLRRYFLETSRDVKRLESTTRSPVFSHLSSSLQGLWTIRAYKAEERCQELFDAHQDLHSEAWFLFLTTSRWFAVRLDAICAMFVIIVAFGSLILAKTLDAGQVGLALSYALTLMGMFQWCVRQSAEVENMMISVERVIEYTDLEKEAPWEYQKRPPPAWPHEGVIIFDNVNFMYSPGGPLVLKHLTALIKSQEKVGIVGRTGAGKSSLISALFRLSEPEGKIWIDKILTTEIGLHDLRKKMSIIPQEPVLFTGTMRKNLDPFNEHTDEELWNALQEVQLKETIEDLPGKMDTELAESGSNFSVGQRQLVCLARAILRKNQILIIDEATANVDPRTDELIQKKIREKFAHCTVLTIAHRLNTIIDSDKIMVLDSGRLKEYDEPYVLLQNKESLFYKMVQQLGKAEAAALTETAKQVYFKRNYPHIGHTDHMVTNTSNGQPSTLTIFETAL

[4] = biological target: T2, ATP-binding cassette sub-family C member 4; test: TP_TRANSPORTER: inhibition of cGMP uptake ([…]: 1 uM, Probenecid: 1000 uM) in membrane vesicles from MRP4-expressing Sf9 cells; design: scale not given: the % may be the effect or the level left; settings: sf9, 1000 µM
[5] = biological target: T1, MRP4 (ABCC4); test: TP_TRANSPORTER: inhibition of MTX uptake (MTX: 0.1 uM, p-Nitropenyl-beta-D-glucuronide: 1000 uM) in membrane vesicles from MRP4-expressing Sf9 cells; design: scale not given: the % may be the effect or the level left; settings: probe methotrexate 0.1 uM, read-out: Activity
[6] = biological target: T1, MRP4 (ABCC4); test: TP_TRANSPORTER: inhibition of Methotrexate uptake (MTX: 0.1 uM, DNP-SG: 100 uM) in membrane vesicles from MRP4-expressing Sf9 cells; design: scale not given: the % may be the effect or the level left; settings: probe methotrexate 0.1 uM, read-out: Activity
[7] = biological target: T1, MRP4 (ABCC4); test: TP_TRANSPORTER: inhibition of MTX uptake (MTX: 0.1 uM, NAc-DNP-Cys: 100 uM) in membrane vesicles from MRP4-expressing Sf9 cells; design: scale not given: the % may be the effect or the level left; settings: probe methotrexate 0.1 uM, read-out: Activity
[8] = substrate: CN(Cc1cnc2nc(N)nc(N)c2n1)c1ccc(C(=O)N[C@@H](CCC(=O)O)C(=O)O)cc1; test: TP_TRANSPORTER: uptake in membrane vesicles from MRP4-expressing Sf9 cells

Molecule: C[C@]12CC[C@@H]3c4ccc(O)cc4CC[C@H]3[C@@H]1CC[C@@H]2O[C@@H]1O[C@H](C(=O)O)[C@@H](O)[C@H](O)[C@H]1O [ESTRADIOL 17B GLUCURONIDE]
activity at 100 µM [1]: 75%

Molecule: OCCN(CCO)c1nc(N2CCCCC2)c2nc(N(CCO)CCO)nc(N3CCCCC3)c2n1 [DIPYRIDAMOLE]
Activity [3]: 9%

Molecule: N[C@@H](CCC(=O)N[C@H](CSc1ccc([N+](=O)[O-])cc1[N+](=O)[O-])C(=O)NCC(=O)O)C(=O)O
activity at 100 µM [6]: 3%

B1: ATP-binding cassette sub-family C member 4 (Homo sapiens) (protein)
chain: MLPVYQEVKPNPLQDANLCSRVFFWWLNPLFKIGHKRRLEEDDMYSVLPEDRSQHLGEELQGFWDKEVLRAENDAQKPSLTRAIIKCYWKSYLVLGIFTLIEESAKVIQPIFLGKIINYFENYDPMDSVALNTAYAYATVLTFCTLILAILHHLYFYHVQCAGMRLRVAMCHMIYRKALRLSNMAMGKTTTGQIVNLLSNDVNKFDQVTVFLHFLWAGPLQAIAVTALLWMEIGISCLAGMAVLIILLPLQSCFGKLFSSLRSKTATFTDARIRTMNEVITGIRIIKMYAWEKSFSNLITNLRKKEISKILRSSCLRGMNLASFFSASKIIVFVTFTTYVLLGSVITASRVFVAVTLYGAVRLTVTLFFPSAIERVSEAIVSIRRIQTFLLLDEISQRNRQLPSDGKKMVHVQDFTAFWDKASETPTLQGLSFTVRPGELLAVVGPVGAGKSSLLSAVLGELAPSHGLVSVHGRIAYVSQQPWVFSGTLRSNILFGKKYEKERYEKVIKACALKKDLQLLEDGDLTVIGDRGTTLSGGQKARVNLARAVYQDADIYLLDDPLSAVDAEVSRHLFELCICQILHEKITILVTHQLQYLKAASQILILKDGKMVQKGTYTEFLKSGIDFGSLLKKDNEESEQPPVPGTPTLRNRTFSESSVWSQQSSRPSLKDGALESQDTENVPVTLSEENRSEGKVGFQAYKNYFRAGAHWIVFIFLILLNTAAQVAYVLQDWWLSYWANKQSMLNVTVNGGGNVTEKLDLNWYLGIYSGLTVATVLFGIARSLLVFYVLVNSSQTLHNKMFESILKAPVLFFDRNPIGRILNRFSKDIGHLDDLLPLTFLDFIQTLLQVVGVVSVAVAVIPWIAIPLVPLGIIFIFLRRYFLETSRDVKRLESTTRSPVFSHLSSSLQGLWTIRAYKAEERCQELFDAHQDLHSEAWFLFLTTSRWFAVRLDAICAMFVIIVAFGSLILAKTLDAGQVGLALSYALTLMGMFQWCVRQSAEVENMMISVERVIEYTDLEKEAPWEYQKRPPPAWPHEGVIIFDNVNFMYSPGGPLVLKHLTALIKSQEKVGIVGRTGAGKSSLISALFRLSEPEGKIWIDKILTTEIGLHDLRKKMSIIPQEPVLFTGTMRKNLDPFNEHTDEELWNALQEVQLKETIEDLPGKMDTELAESGSNFSVGQRQLVCLARAILRKNQILIIDEATANVDPRTDELIQKKIREKFAHCTVLTIAHRLNTIIDSDKIMVLDSGRLKEYDEPYVLLQNKESLFYKMVQQLGKAEAAALTETAKQVYFKRNYPHIGHTDHMVTNTSNGQPSTLTIFETAL
Km [8]: 1300 µM

The remaining lines, values ahead:

activity at 1000 µM [2]: 18%
Molecule: O=C(O)[C@H]1O[C@@H](Oc2cccc3ccccc23)[C@H](O)[C@@H](O)[C@@H]1O

Activity [4]: 10%
Molecule: CCCN(CCC)S(=O)(=O)c1ccc(C(=O)O)cc1 [PROBENECID]

activity at 1000 µM [5]: 25%
Molecule: O=C(O)[C@H]1O[C@@H](Oc2ccc([N+](=O)[O-])cc2)[C@H](O)[C@@H](O)[C@@H]1O

activity at 100 µM [7]: 29%
Molecule: CC(=O)N[C@@H](CSc1ccc([N+](=O)[O-])cc1[N+](=O)[O-])C(=O)O
